Test results reported in patent EP0502205A1, “CHALCONE DERIVATIVE AND ULTRAVIOLET SCREENING COSMETIC” (NIPPON HYPOX LABORATORIES INCORPORATED, priority 1990, dated 1992).

Columns and labels:
[1] = system: rat abdominal cavity exudate mast cell; assay: Anti-allergic activity test (inhibition of free histamine from mast cell, concanavalin A as freeing agent); assay type: cell-based, SD rat; details: 10 min, concentration of 0.03 mM, n = 5, read-out: free histamine inhibition ratio
Experimental: At first, an abdominal cavity exudate mast cell of an SD rat was obtained by a conventional method. Then, the above-obtained abdominal cavity mast cell was floated on a Locke solution, and a test substance in a predetermined concentration and phosphatidylcerine (final concentration 3 µg/ml) were added. The mixture was warmed up to 37° C, and after concanavalin A as a freeing agent was added, the mixture was maintained at 37° C for 10 minutes. Thereafter, the reaction solution was centrifugally separated to a sediment portion and a supernatant portion, and the histamine amount of each of these portions was quantitatively determined by an orthophthalaldehyde method. In addition, as a test substance, a dimethylformamide solution (final concentration 0.03 mM) of 3 mM 2',4'-dihydroxychalcone and a DMF solution (final concentration 0.03 mM) of an anti-inflammatory drug (Azelastine) were used. The free histamine ratio was calculated on the basis of the following equation. In control, the solvent alone was added. [formula] Ps: Histamine amount in sediment portion Pr: Histamine amount in supernatant portion. The free histamine inhibition ratio of the test substance was calculated on the basis of the following equation. [formula] S: Free histamine ratio when test substance is added. C: Free histamine ratio when no test substance is added (control). […]

[2] = system: lipid peroxidation reaction of liver microsome; assay: Cell protection activity test (inhibition of lipid peroxidation, thiobarbituric acid method); assay type: biochemical, rat; details: 37° C 20 minutes, n = 3 - 5; for Inhibition ratio 10^-5 concentration: 10 µM; for Inhibition ratio 10^-4M concentration: final concentration 10^-4M, 100 µM
Experimental: Cell impairment caused by a radical reaction of an organic compound is known as one of optical affections on the skin.
First, rat liver microsome was obtained by a conventional method, and then, suspended in 1.15 % KCl to prepare a microsome suspension.
Then, the above microsome suspension in an amount of 2 mg as protein was added to a tris-HCl buffer (pH 7.4) containing NADPH (final concentration 0.2 mM), ADP (final concentration 1 mM) and FeCl₃ (final concentration 10 µM). And, 10 µl of a dimethylformamide (DMF) solution of a test compound was added so that the total amount was 1 ml, and the resultant mixture was warmed at 37° C for 20 minutes. The test compound was added such that the final concentration became 10⁻⁴M or 10⁻⁵M.
Thereafter, the amount of formed peroxidation lipid was measured by a thiobarbituric acid method. The inhibition activity of the test compound is expressed in terms of an inhibition ratio (%) in comparison with a control group. […] In addition, in the control group, 10 µl of DMF was used in place of 10 µl of the DMF solution of the test compound.

[3] = system: notal skins of Hartley guinea pigs; assay: Safety test (ointment on skin under adhesive plaster, histological observation); assay type: in vivo; details: 10 mg ointment containing 5 wt.%, covered with adhesive plaster for 24 hours or 72 hours
Experimental: 10 milligrams of the ointment containing 5 wt.% of the known chalcone derivative of Example 14, obtained in Example 16, was applied to the notal skins of Hartley guinea pigs, and the applied portions were covered with an adhesive plaster for 24 hours or 72 hours.

sunburn [4] = assay: Ultraviolet screening test (ointment on skin exposed to direct sunlight); assay type: in vivo, normally healthy persons
sunburn [5] = assay: as above; assay type: in vivo, normally healthy persons; remark: listed apart in the source
Experimental: 10 Milligrams of the ointment containing 1 wt.% of the known chalcone derivative in Example 14, obtained in Example 15, 10 mg of an ointment containing 1 wt.% of p-aminobenzoic acid as a control, obtained in the same manner as in Example 15 except for the use of p-aminobenzoic acid in place of the above known chalcone derivative (to be abbreviated as AO in Table 3 which will follow), and 10 mg of the same hydrophilic ointment as that used in Example 15 (to be abbreviated as HO in Table 2 which will follow) were respectively applied to the femoral region of each of normally healthy persons (10 persons) such that these became circular forms having nearly the same size. Then, these applied portions were exposed to direct sunlight outdoors in fine weather for 2 hours and 30 minutes.
After the exposure, each applied portion was visually observed. The portions where clear sunburn was recognized were taken as +, the portions where slight sunburn was recognized were taken as ±, and the portions where almost no change was recognized were taken as -. The test substances were so evaluated on their ultraviolet screening effects.
The ointment containing 1 wt.% of the novel chalcone derivative of Example 1, obtained in Example 15, the ointment containing 1 wt.% of the novel chalcone derivative of Example 1, the ointment containing 1 wt.% of the novel chalcone derivative of Example 2, the ointment containing 1 wt.% of the novel chalcone derivative of Example 4, the ointment containing 1 wt.% of the novel chalcone derivative of Example 6 and the ointment containing 1 wt.% of the known chalcone derivative of Example 9 were respectively similarly tested on their ultraviolet screening effects. However, the exposure time outdoors in fine weather was set for 1 hour. […]

[6] = Ultraviolet light absorption maximum and absorbance in ethanol solution; assay type: physicochemical; details: for Absorbance 300 nm / Absorbance 350 nm / Absorbance UVmax: concentration of 10 μg/ml in an ethanol solution; for Absorbance UVmax: at UVmax; for UVmax: ultraviolet light absorption maximum
[7] = system: inflammation induced by an egg-white albumin-adjuvant system; assay: Anti-inflammatory activity test (swelling of subplantar region of right hind paw); assay type: in vivo, SD rats; details: oral, 10 mg/weight-kg, 0.5 hour before inflammation inducer; measured 0.5, 1, 2, 3 and 4 hours after; Fig. 1
Experimental: As a test group, a comparison group and a control group, 5 male SD rats weighing 180 to 220 g were used per group. Each rat was measured for a size (volume) of the subplantar region of the right hind paw.
This aluminum hydroxide was used as an adjuvant. Per rat, a solution obtained by suspending 4 mg of the adjuvant and 0.2 mg of egg-white albumin in 0.1 ml of pertussis vaccine was prepared as an inflammation inducer.
0.5 Hour after the administration, the inflammation inducer was intracutaneously administered into the subplantar region of the right hind paw of each rat to induce swelling.
Then, 0.5, 1, 2, 3 and 4 hours after the administration of the inflammation inducer, each rat was measured for a size (volume) of the subplantar region of the right hind paw by volumetry. […] [formula] Ps: Measurement value of volume of subplantar region at a measurement time (average of the group). Po: Measurement value of volume of subplantar region before administration of inflammation inducer (average of the group).
Each rat of the control group was orally administered with a 10 % Nikkol-containing physiological saline solution in place of the 10 % Nikkol-containing physiological saline solution containing 2',4'-dihydroxychalcone. Thereafter, the same procedures as those for the test group were repeated to determine the swelling as a group.

[8] = ointment containing 1 wt.%, exposure time outdoors 1 hour
[9] = 10 mg ointment containing 1 wt.%, femoral region, 10 persons, direct sunlight 2 hours and 30 minutes

Row | SMILES | inhibition at 30 µM [1] [%] | Inhibition ratio 10^-5 concentration [2] | Inhibition ratio 10^-4M concentration [2] | histological comparison of skin of applied portion and skin of normal portion [3] | numbers of persons + (Almost no change) (sunburn [4]; [8]) [persons] | numbers of persons + (Clear sunburn was recognized) (sunburn [5]; [8]) [persons] | Absorbance 300 nm [6] | Absorbance 350 nm [6] | Absorbance UVmax [6] | UVmax [6] [nm] | inhibition of swelling [7] | numbers of persons + (Almost no change) (sunburn [4]; [9]) [persons] | numbers of persons + (Clear sunburn was recognized) (sunburn [5]; [9]) [persons] | numbers of persons - (Slight sunburn was recognized) (sunburn [5]; [9]) [persons] | ultraviolet absorption spectrum (in words) ([6]; Fig. 2)
1 | CN1CCCC(n2nc(Cc3ccc(Cl)cc3)c3ccccc3c2=O)CC1 (stereo not shown) [Azelastine, reference compound] | 20.8 ± 4.2 |  |  |  |  |  |  |  |  |  |  |  |  |  | 
2 | O=C(/C=C/c1cccc(F)c1)c1ccc(O)cc1O [Example 1, 2',4'-dihydroxy-3-fluoro-chalcone] |  | 90 % or more | 90 % or more | no histological difference | 4 | 0 | 0.70~0.85 | 0.70~0.85 | 0.80~0.95 | 317 |  |  |  |  | 
3 | O=C(/C=C/c1cccc(F)c1)c1ccc(O)cc1 [Example 2] |  | 16% | 90 % or more |  | 4 | 0 | 0.90~1.00 | 0.45~0.55 | 0.90~1.20 | 318 |  |  |  |  | 
4 | O=C(/C=C/c1ccccc1F)c1ccc(O)cc1O [Example 3] |  | 90 % or more | 90 % or more |  |  |  | 0.70~0.85 | 0.80~0.95 | 0.80~1.10 | 320 |  |  |  |  | 
5 | O=C(/C=C/c1ccc(F)cc1)c1ccc(O)cc1O [Example 4] |  | 90 % or more | 90 % or more |  | 4 | 0 | 0.50~0.65 | 0.60~0.70 | 0.55~0.70 | 346 |  |  |  |  | 
6 | O=C(/C=C/c1ccc(C(F)(F)F)cc1)c1ccc(O)cc1O [Example 5] |  | 15% | 90 % or more |  |  |  | 0.60~0.75 | 0.50~0.65 | 0.60~0.80 | 305 |  |  |  |  | 
7 | CCOc1ccc(/C=C/C(=O)c2ccc(O)cc2O)cc1 [Example 6] |  | 30% | 90 % or more |  | 3 | 0 | 0.20~0.40 | 0.60~0.75 | 0.80~0.95 | 364 |  |  |  |  | 
8 | CCOc1ccccc1/C=C/C(=O)c1ccc(O)cc1O [Example 7] |  | 90 % or more | 90 % or more |  |  |  | 0.55~0.70 | 0.85~1.10 | 1.10~1.30 | 365 |  |  |  |  | 
9 | O=C(/C=C/c1ccccc1)c1ccc(O)cc1 [Example 8] |  | 64% | 90 % or more |  |  |  | 1.40~1.50 | 0.75~0.85 | 1.80~2.10 | 318 |  |  |  |  | 
10 | Cc1ccc(/C=C/C(=O)c2ccc(O)cc2O)cc1 [Example 9] |  | 25% | 90 % or more |  | 4 | 0 | 0.40~0.55 | 0.90~1.00 | 0.80~1.10 | 352 |  |  |  |  | 
11 | O=C(/C=C/c1ccc(Cl)cc1)c1ccc(O)cc1O [Example 10] |  | 32% | 90 % or more |  |  |  | 0.85~1.00 | 1.15~1.30 | 1.20~1.40 | 322 |  |  |  |  | 
12 | O=C(/C=C/c1ccc([N+](=O)[O-])cc1)c1ccc(O)cc1O [Example 11] |  | 62% | 90 % or more |  |  |  | 0.60~0.75 | 0.75~0.90 | 0.80~0.90 | 320 |  |  |  |  | 
13 | O=C(/C=C/c1ccc2c(c1)OCO2)c1ccc(O)cc1 [Example 12] |  |  | 90 % or more |  |  |  | 0.30~0.45 | 0.85~1.00 | 0.90~1.00 | 355 |  |  |  |  | 
14 | O=C(/C=C/c1ccc(O)c(O)c1)c1ccc(O)cc1 [Example 13] |  | 84% | 90 % or more |  |  |  | 0.35~0.50 | 0.85~1.00 | 1.00~1.15 | 365 |  |  |  |  | 
15 | O=C(/C=C/c1ccccc1)c1ccc(O)cc1O [Example 14, 2',4'-dihydroxychalcone] | 56.9 ± 12.8 | 90 % or more | 90 % or more | no difference between these two portions |  |  | 0.65~0.75 | 0.60~0.70 | 0.70~0.80 | 306 | significantly inhibited swelling | 9 | 0 | 1 | has an absorption band in most of the wavelength regions of Dorno's ray and long-wavelength ultraviolet light
16 | COc1ccc2c(c1)c(CC(=O)O)c(C)n2C(=O)c1ccc(Cl)cc1 [indomethacin, reference compound] |  |  |  |  |  |  |  |  |  |  | significantly inhibited swelling |  |  |  | 
